Assay results reported in ChEMBL document CHEMBL6182886, “The Liebeskind-Srogl cross-coupling reaction towards the synthesis of biologically active compounds” (Eur J Med Chem, 2025).
Converted amounts (≈) assume the structure as drawn.

Legend:
Cannabinoid receptor 1 = Cannabinoid receptor 1 (Rattus norvegicus, UniProt P20272); assay: Binding affinity to rat brain CB1 receptor assessed as inhibition constant; assay type: tissue-based
Cannabinoid receptor 2 = Cannabinoid receptor 2 (Mus musculus, UniProt P47936); assay: Binding affinity to mouse CB2 receptor extracted from HEK293 cell membrane assessed as inhibition constant; assay type: cell membranes
[1] = Cytotoxicity against human HOG.R5 cells; assay type: functional, cell-based
[2] = system: Human immunodeficiency virus 1; assay: Antiviral activity against HIV-1 infected in human HOG.R5 cells assessed as reduction in viral growth; assay type: functional, organism-based; conditions: Human immunodeficiency virus 1, HOG.R5
KB = assay: Cytotoxicity against human KB cells; assay type: functional, cell-based
L1210 = assay: Cytotoxicity against mouse L1210 cells; assay type: functional, cell-based
[3] = Anticancer activity against human HEP cells assessed as reduction in cell viability measured for 48 hrs by MTT assay; assay type: toxicity, cell-based
P815 = assay: Anticancer activity against mouse P815 cells assessed as reduction in cell viability measured for 48 hrs by MTT assay; assay type: functional, cell-based; conditions: P815, 48 h

Sequence of Cannabinoid receptor 2 (P47936 whole entry): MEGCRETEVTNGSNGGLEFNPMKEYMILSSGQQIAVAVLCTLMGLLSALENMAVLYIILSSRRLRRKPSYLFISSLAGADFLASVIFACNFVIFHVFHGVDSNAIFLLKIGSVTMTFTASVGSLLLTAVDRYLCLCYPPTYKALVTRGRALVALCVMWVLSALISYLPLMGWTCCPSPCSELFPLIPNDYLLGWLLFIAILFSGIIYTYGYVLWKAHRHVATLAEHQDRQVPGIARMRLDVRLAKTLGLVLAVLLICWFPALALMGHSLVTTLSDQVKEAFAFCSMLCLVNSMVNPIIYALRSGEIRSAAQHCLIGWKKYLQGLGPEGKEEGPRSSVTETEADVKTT
Sequence of Cannabinoid receptor 1 (P20272 whole entry): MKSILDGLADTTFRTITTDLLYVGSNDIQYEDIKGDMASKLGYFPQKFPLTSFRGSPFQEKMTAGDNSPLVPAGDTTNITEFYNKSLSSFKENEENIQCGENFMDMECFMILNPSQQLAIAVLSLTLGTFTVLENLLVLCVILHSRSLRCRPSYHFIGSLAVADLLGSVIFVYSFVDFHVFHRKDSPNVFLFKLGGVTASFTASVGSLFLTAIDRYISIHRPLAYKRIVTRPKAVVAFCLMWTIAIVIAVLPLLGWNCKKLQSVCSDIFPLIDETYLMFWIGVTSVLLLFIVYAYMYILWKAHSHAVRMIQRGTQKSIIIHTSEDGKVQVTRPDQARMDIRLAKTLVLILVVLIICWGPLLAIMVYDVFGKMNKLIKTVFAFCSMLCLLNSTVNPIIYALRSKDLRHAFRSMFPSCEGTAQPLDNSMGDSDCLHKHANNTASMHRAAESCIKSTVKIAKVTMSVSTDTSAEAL

## COCOc1cc(C2=NCCC2)cc2c1[C@@H]1C[C@H](OCOC)CC[C@H]1C(C)(C)O2
Cannabinoid receptor 1
  Ki: 0.0163 µM
Cannabinoid receptor 2
  Ki: 0.0123 µM

## CC(C)=CCC/C(C)=C/[C@H]1C(=O)C(C)=C[C@@H]1O
[1]
  IC50: 13.2 µg/mL (≈ 56.3 µM)
[2]
  IC50: 5 µg/mL (≈ 21.3 µM)

## CCCCCCC1(c2cc(O)c3c(c2)OC(C)(C)[C@@H]2CC[C@@H](O)C[C@@H]32)CN(C)C1
Cannabinoid receptor 1
  Ki: 0.0192 µM
Cannabinoid receptor 2
  Ki: 0.0213 µM

## C=C1/C=C(\C)[C@@H](C)[C@@H](O)CC(=O)[C@@H](C)CC(=O)C[C@H]2CC[C@@H](O2)[C@@H](/C=C/C=C(\C)[C@@H](O)C(=C)CCCC)OC(=O)C[C@@H]2O[C@H](C[C@H]2C)[C@H](O)[C@@H]1O
KB
  IC50: 0.0046 µg/mL (≈ 0.00643 µM)
L1210
  IC50: 0.0058 µg/mL (≈ 0.00811 µM)

## CC(C)=CCC/C(C)=C\[C@H]1C(=O)C(C)=C[C@@H]1O
[1]
  IC50: 5.7 µg/mL (≈ 24.3 µM)
[2]
  IC50: 2 µg/mL (≈ 8.53 µM)

## C=C1/C=C(\C)[C@@H](C)[C@@H](O)CC(=O)[C@@H](C)CC(=O)C[C@H]2CC[C@@H](O2)[C@@H](/C=C/C=C(C)C)OC(=O)C[C@@H]2O[C@H](C[C@H]2C)[C@H](O)[C@@H]1O
KB
  IC50: 3.2 µg/mL (≈ 5.19 µM)
L1210
  IC50: 1.5 µg/mL (≈ 2.43 µM)

## CCCCCCCCCCCCCC[C@@H]1CCCN1C
[3]
  IC50: 5 µg/mL (≈ 17.8 µM)
P815
  IC50: 10 µg/mL (≈ 35.5 µM)
